Experimental data reported in US11351157B2, “Treatment of immunological disease using berberine nanoparticles” (Icahn School of Medicine at Mount Sinai, priority 2016, dated 2022).
Read-outs that look alike come from different tables or passages of the source.

B1: quilizumab: mIgE (membrane-bound IgE) targeting antibody studied in clinical trials (antibody, chains of the INN, looked up, V domains shown)
VH: EVQLVESGGGLVQPGGSLRLSCAASGFTFSDYGIAWVRQAPGKGLEWVAFISDLAYTIYYADTVTGRFTISRDNSKNTLYLQMNSLRAEDTAVYYCARDNWDAMDYWGQGTLVTVSS
VL: DIQMTQSPSSLSASVGDRVTITCRSSQSLVHNNANTYLHWYQQKPGKAPKLLIYKVSNRFSGVPSRFSGSGSGTDFTLTISSLQPEDFATYYCSQNTLVPWTFGQGTKVEIK

Columns and labels:
peanut-specific IgE = experiment: Peanut-specific IgE in serum of peanut-sensitized mice (ELISA); assay type: in vivo, C3H/HeJ mice; conditions: two oral courses, vs Sham
Description: Six-week-old female C3H/HeJ mice purchased from the Jackson Laboratory (Bar Harbor, Me.) were maintained in pathogen-free facilities at the Mount Sinai vivarium on peanut-free chow according to standard guidelines for the care and use of animals. Institute of Laboratory Animal Resources Commission of Life Sciences NRC. Guide for the Care and Use of Laboratory Animals: National Academic Press, 1996. […] Some mice were sensitized to egg white (EW) using a similar protocol. Subsequently, daily oral treatment with BBR-nanoparticles was administered in 4-week and 2-week phases with an interval of 2 weeks at times indicated. Mice were periodically challenged with systemic and oral challenges at approximately 6 week intervals, as indicated. In some experiments mice were given intraperitoneal injections of 100 μg of anti-CD8 or anti-IFNγ antibodies, one day prior and then twice weekly during treatment period. Microtitre plates were coated with defatted protein extracts of peanut or egg white (sample wells) and rat anti-mouse IgE (reference wells) and held overnight at 4° C. After washing three times, plates were blocked for 2 hours at room temperature with 2% BSA-PBS. After three washes plates were incubated with diluted serum samples overnight at 4° C. […] Total IgA, peanut specific IgG1 and IgG2a levels were measured as described in a previous publication. […]

human B cells = conditions: cited from earlier work; for IgE production by human B cells: human B cells / U266 cells
[1] = test system: peripheral blood mononuclear cells (PBMCs); conditions: cited from earlier work; for IgE production by PBMCs: PBMCs from patients with food allergy
[2] = in vivo; cited from earlier work
P-glycoprotein = conditions: mediated by P-glycoprotein; cited from earlier work
[3] = biological target: T1, mIgE (membrane-bound IgE) (Homo sapiens, UniProt P01854); conditions: clinical trials; cited from earlier work
T1 construct: host or cells: endogenous mIgE on IgE-lineage B cells of human trial subjects
T1 sequence (P01854 whole entry): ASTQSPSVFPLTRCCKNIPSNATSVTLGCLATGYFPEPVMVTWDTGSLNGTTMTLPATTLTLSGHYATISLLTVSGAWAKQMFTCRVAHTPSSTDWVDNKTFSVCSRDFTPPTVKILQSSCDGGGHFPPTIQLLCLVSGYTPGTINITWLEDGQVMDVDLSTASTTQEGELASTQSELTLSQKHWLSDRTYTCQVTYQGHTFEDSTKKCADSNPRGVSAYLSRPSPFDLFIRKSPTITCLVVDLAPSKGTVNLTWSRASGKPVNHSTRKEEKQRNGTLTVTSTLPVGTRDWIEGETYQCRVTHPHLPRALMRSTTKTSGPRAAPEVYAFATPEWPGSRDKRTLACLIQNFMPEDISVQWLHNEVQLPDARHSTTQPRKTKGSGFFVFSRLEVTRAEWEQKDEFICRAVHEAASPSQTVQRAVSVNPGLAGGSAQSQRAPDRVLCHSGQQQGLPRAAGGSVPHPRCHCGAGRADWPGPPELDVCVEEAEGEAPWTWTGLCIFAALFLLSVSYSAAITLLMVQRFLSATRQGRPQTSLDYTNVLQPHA
T1 sequence (P11912 33-226 partner): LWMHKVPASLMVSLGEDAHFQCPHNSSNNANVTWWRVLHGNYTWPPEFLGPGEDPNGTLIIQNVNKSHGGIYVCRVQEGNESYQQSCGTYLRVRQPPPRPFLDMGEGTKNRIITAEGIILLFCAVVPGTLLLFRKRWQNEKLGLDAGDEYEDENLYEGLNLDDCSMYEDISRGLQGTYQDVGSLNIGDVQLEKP
T1 sequence (P40259 29-229 partner): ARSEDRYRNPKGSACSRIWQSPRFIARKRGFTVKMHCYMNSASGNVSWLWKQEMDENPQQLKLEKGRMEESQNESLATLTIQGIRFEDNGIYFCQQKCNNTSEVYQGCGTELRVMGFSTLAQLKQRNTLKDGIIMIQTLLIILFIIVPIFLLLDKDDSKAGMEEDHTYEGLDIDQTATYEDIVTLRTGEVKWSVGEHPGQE

Row | Molecule | Peanut-specific IgE (peanut-specific IgE) | IC50 of IgE production (human B cells) | IgE production by human B cells (human B cells) | IgE production by human B cells (human B cells; listed as Berberine) | IgE production by PBMCs [1] | IgE production by PBMCs ([1]; listed as Berberine) | Cytotoxicity of inhibition in PBMCs [1] | Berberine taken up by the gastrointestinal tract [2] | Bioavailability [2] | Rate of efflux from intestinal epithelial cells (P-glycoprotein) | Clinical benefit in early human studies [3] | IgE reduction in early human studies [3]
1 | COc1ccc2cc3[n+](cc2c1OC)CCc1cc2c(cc1-3)OCO2 [berberine, Berberine] | not | 0.1962 µg/mL | significant reduction | significantly reduced | significant reduction | significantly reduced | non-cytotoxic | less than 5% | less than 1% | up to 95% | – | –
2 | B1 | – | – | – | – | – | – | – | – | – | – | without any significant clinical benefit | only moderate IgE reduction
